Data: US10125134B2 (Mirati Therapeutics, Inc., priority 2016, dated 2018)
pIC50: −log10 of the molar value. Structures can show the parent of a compound that is named as a salt. Where two headings read alike, the source gives them in different places.

Key:
[1] = system: NCI-H358 cells (express KRas G12C), Phospho-ERK; test: Cellular inhibition of KRas G12C: Phospho-ERK in NCI-H358 cells; assay type: cell-based; conditions: Homo sapiens, pERK(Thr202/Tyr204) normalized with GAPDH, NCI-H358 cells, 3 hours, read-out: IC50
Method: The cellular inhibition of KRAs G12C by exemplary compounds of the present invention was determined by measuring the amount of a downstream marker of KRas activity, phosphorylated ERK (“Phospho-ERK”).
Cells were plated in poly-D-Lysine coated 96-well plates at a concentration of 50,000 cells/well and allowed to attach for 8-12 hours. Diluted compounds were then added at a final concentration of 0.5% DMSO. After 3 hours, the medium was removed, 150 μL of 4% formaldehyde was added and the plates were incubated for 20 minutes. The plates were washed with PBS, and permeabilized using 150 μL of ice cold 100% methanol for 10 minutes. Non-specific antibody binding to the plates was blocked using 100 μL Licor Blocking Buffer (Li-Cor Biotechnology, Lincoln Nebr.) for 1 hour at room temperature. Positive control samples and samples lacking cells were parallel processed with test samples as standards.
The amount Phospho-ERK was determined using an antibody specific for the phosphorylated form of ERK and compared to the amount of GAPDH. […] The plates were incubated for 2 hours at room temperature. The plates were washed with PBS+0.05% Tween 20.
Secondary antibodies used to visualize primary antibodies were added as follows: Anti-rabbit-680 diluted 1:1000 and Anti-mouse-800 diluted 1:1000 in Licor Block+0.05% Tween 20 and incubated for 1 hour at room temperature. The plates were washed with PBS+0.05% Tween 20. A 100 μL aliquot of PBS was added to each well and the plates were read on a LICOR AERIUS plate reader.
The pERK(Thr202/Tyr204) signal was normalized with the GAPDH signal and percent of DMSO control values were calculated. IC50 values were generated using a 4 parameter fit of the dose response curve. Key: “A”≥0.0001−≤1 μM; and “B”>1 μM.

KRas G12C = KRas G12C (Homo sapiens, UniProt P01116, C118S/C51S/C80L/G12C); test: KRas G12C Modification Assay (LCMS detection of covalent adduct); assay type: binding; conditions: normalized percent of control; tested at 5 μM concentration for 3 hours
Method: A 10 μL aliquot of each protein solution was then transferred to a 384 well microtiter plate. Initial compound stocks were generated at fifty times their desired final assay concentration in DMSO.
Exemplary compounds of Formula (I) were diluted 25-fold into K-Ras Assay Buffer to a final of two times their final concentration. A 10 μL aliquot of each diluted compound solution was then added to each of the protein solutions in the microtiter plate to initiate reaction. […] At each time point, the reactions were quenched with 20 μL of a 25 mM acetic acid solution. […] Once all reactions were quenched, the plates were heat sealed and the samples were injected into a LC/MS system for data acquisition.
Samples were injected in their liquid phase onto a C-3 reverse phase column to remove assay buffer and prepare the samples for mass spectrometer. The proteins were eluted from the column using an acetonitrile gradient and fed directly into the mass analyzer. Initial raw data analysis took place in Agilent MassHunter software immediately post data acquisition.
Raw data analysis of the intact protein was exclusively a deconvolution of the multiple charge states of each protein in solution using a maximum entropy deconvolution provided in Mass Hunter. To minimize complexity, only the data over limited mass ranges were considered for analysis, with a minimum of one Dalton mass step intervals. The heights of all masses identified during raw data analysis were exported to be further analyzed in Spotfire® data analysis software.
Final data analysis was a multistep process in the Spotfire® data analysis software package. Briefly, each protein mass was calculated as a percent of the total signal of that sample, that percentage was then normalized to the percentage of signal of the protein in the absence of reactive compounds. Those normalized signals were reported as normalized percent of control (POC). […] Key: “A”≤25% POC; “B”>25% POC−≤50% POC; “C”>50% POC and ND=not determined.

Compound	pIC50 ([1]; NCI-H358, 3 h)	POC (KRas G12C)	pIC50 [1]
C=CC(=O)N1CCN(c2nc(OC(C)CN(C)C)nc3c2CCN(c2cccc4ccccc24)C3)CC1 (stereo not drawn) [Example 24, 1-(4-(2-((1-(dimethylamino)propan-2-yl)oxy)-7-(naphthalen-1-yl)-5,6,7,8-tetrahydropyrido[3,4-d]pyrimidin-4-yl)piperazin-1-yl)prop-2-en-1-one]	< 6.00	A (“A”≤25% POC)	–
C=CC(=O)N1CCN(c2nc(OCCCN(C)C)nc3c2CCN(C(C)c2ccccc2)C3)CC1 (stereo not drawn) [Example 25, 1-(4-(2-(3-(dimethylamino)propoxy)-7-(1-phenylethyl)-5,6,7,8-tetrahydropyrido[3,4-d]pyrimidin-4-yl)piperazin-1-yl)prop-2-en-1-one]	–	A (“A”≤25% POC)	< 6.00
C=CC(=O)N1CCN(c2nc(N3CCN(CCO)CC3)nc3c2CCN(c2cc(O)cc4ccccc24)C3)CC1 [Example 26, 1-(4-(2-(4-(2-hydroxyethyl)piperazin-1-yl)-7-(3-hydroxynaphthalen-1-yl)-5,6,7,8-tetrahydropyrido[3,4-d]pyrimidin-4-yl)piperazin-1-yl)prop-2-en-1-one]	< 6.00	C (“C”>50% POC)	–
C=CC(=O)N1CCN(c2nc(OCCN3CCS(=O)(=O)CC3)nc3c2CCN(c2cc(O)cc4ccccc24)C3)CC1 [Example 33, 1-(4-(2-(2-(1,1-dioxidothiomorpholino)ethoxy)-7-(3-hydroxynaphthalen-1-yl)-5,6,7,8-tetrahydropyrido[3,4-d]pyrimidin-4-yl)piperazin-1-yl)prop-2-en-1-one trifluoroacetate]	< 6.00	B (“B”>25% POC−≤50% POC)	–
C=CC(=O)N1CCN(c2nc(OCCCN3CCS(=O)(=O)CC3)nc3c2CCN(c2cc(O)cc4ccccc24)C3)CC1 [Example 34, 1-(4-(2-(3-(1,1-dioxidothiomorpholino)propoxy)-7-(3-hydroxynaphthalen-1-yl)-5,6,7,8-tetrahydropyrido[3,4-d]pyrimidin-4-yl)piperazin-1-yl)prop-2-en-1-one trifluoroacetate]	< 6.00	A (“A”≤25% POC)	–
C=CC(=O)N1CCN(c2nc(OCCCCN3CCOCC3)nc3c2CCN(c2cc(O)cc4ccccc24)C3)CC1 [Example 35, 1-(4-(7-(3-hydroxynaphthalen-1-yl)-2-(4-morpholinobutoxy)-5,6,7,8-tetrahydropyrido[3,4-d]pyrimidin-4-yl)piperazin-1-yl)prop-2-en-1-one trifluoroacetate]	< 6.00	C (“C”>50% POC)	–
C=CC(=O)N1CCN(c2nc(O[C@H](C)CN3CCN(C(C)=O)CC3)nc3c2CCN(c2cc(O)cc4ccccc24)C3)CC1 [Example 36, (R)-1-(4-(2-((1-(4-acetylpiperazin-1-yl)propan-2-yl)oxy)-7-(3-hydroxynaphthalen-1-yl)-5,6,7,8-tetrahydropyrido[3,4-d]pyrimidin-4-yl)piperazin-1-yl)prop-2-en-1-one]	< 6.00	C (“C”>50% POC)	–
C=CC(=O)N1CCN(c2nc(OCCN3CCN(C(C)=O)CC3)nc3c2CCN(c2cc(O)cc4ccccc24)C3)CC1 [Example 37, 1-(4-(2-(2-(4-acetylpiperazin-1-yl)ethoxy)-7-(3-hydroxynaphthalen-1-yl)-5,6,7,8-tetrahydropyrido[3,4-d]pyrimidin-4-yl)piperazin-1-yl)prop-2-en-1-one]	< 6.00	C (“C”>50% POC)	–
C=CC(=O)N1CCN(c2nc(OCCCN3CCCCC3)nc3c2CCN(c2cc(O)cc4ccccc24)C3)CC1 [Example 38, 1-(4-(7-(3-hydroxynaphthalen-1-yl)-2-(3-(piperidin-1-yl)propoxy)-5,6,7,8-tetrahydropyrido[3,4-d]pyrimidin-4-yl)piperazin-1-yl)prop-2-en-1-one]	6.00 to 10.00	C (“C”>50% POC)	–
C=CC(=O)N1CCN(c2nc(OCCCN3CCCC3)nc3c2CCN(c2cc(O)cc4ccccc24)C3)CC1 [Example 39, 1-(4-(7-(3-hydroxynaphthalen-1-yl)-2-(3-(pyrrolidin-1-yl)propoxy)-5,6,7,8-tetrahydropyrido[3,4-d]pyrimidin-4-yl)piperazin-1-yl)prop-2-en-1-one]	6.00 to 10.00	C (“C”>50% POC)	–
C=CC(=O)N1CCN(c2nc(OCCCCN(C)C)nc3c2CCN(c2cc(O)cc4ccccc24)C3)CC1 [Example 40, 1-(4-(2-(4-(dimethylamino)butoxy)-7-(3-hydroxynaphthalen-1-yl)-5,6,7,8-tetrahydropyrido[3,4-d]pyrimidin-4-yl)piperazin-1-yl)prop-2-en-1-one]	6.00 to 10.00	C (“C”>50% POC)	–
C=CC(=O)N1CCN(c2nc(OCCCN3CCOCC3)nc3c2CCN(c2cc(O)cc(C4CC4)c2)C3)CC1 [Example 41, 1-(4-(7-(3-cyclopropyl-5-hydroxyphenyl)-2-(3-morpholinopropoxy)-5,6,7,8-tetrahydropyrido[3,4-d]pyrimidin-4-yl)piperazin-1-yl)prop-2-en-1-one trifluoroacetate]	–	A (“A”≤25% POC)	< 6.00
C=CC(=O)N1CCN(c2nc(OCCCN3CCOCC3)nc3c2CCN(c2cc(O)ccc2F)C3)CC1 [Example 42, 1-(4-(7-(2-fluoro-5-hydroxyphenyl)-2-(3-morpholinopropoxy)-5,6,7,8-tetrahydropyrido[3,4-d]pyrimidin-4-yl)piperazin-1-yl)prop-2-en-1-one]	–	A (“A”≤25% POC)	< 6.00
C=CC(=O)N1CCN(c2nc(OCCCN3CCOCC3)nc3c2CCN(c2cc(O)cc4cc(C)ccc24)C3)CC1 [Example 43, 1-(4-(7-(3-hydroxy-6-methylnaphthalen-1-yl)-2-(3-morpholinopropoxy)-5,6,7,8-tetrahydropyrido[3,4-d]pyrimidin-4-yl)piperazin-1-yl)prop-2-en-1-one]	–	C (“C”>50% POC)	< 6.00
C=CC(=O)N1CCN(c2nc(OCCCN3CCOCC3)nc3c2CCN(c2c(C)ccc4[nH]ncc24)C3)CC1 [Example 44, 1-(4-(7-(5-methyl-1H-indazol-4-yl)-2-(3-morpholinopropoxy)-5,6,7,8-tetrahydropyrido[3,4-d]pyrimidin-4-yl)piperazin-1-yl)prop-2-en-1-one]	–	C (“C”>50% POC)	< 6.00
C=CC(=O)N1[C@@H]2CC[C@H]1CN(c1nc(OC(C)CN(C)C)nc3c1CCN(c1cc(O)cc4ccccc14)C3)C2 (stereo partly drawn) [Example 45, 1-((1R,5S)-3-(2-((1-(dimethylamino)propan-2-yl)oxy)-7-(3-hydroxynaphthalen-1-yl)-5,6,7,8-tetrahydropyrido[3,4-d]pyrimidin-4-yl)-3,8-diazabicyclo[3.2.1]octan-8-yl)prop-2-en-1-one]	–	A (“A”≤25% POC)	< 6.00
C=CC(=O)N1C[C@H]2CC[C@@H](C1)N2c1nc(OC(C)CN(C)C)nc2c1CCN(c1cc(O)cc3ccccc13)C2 (stereo partly drawn) [Example 46, 1-((1R,5S)-8-(2-((1-(dimethylamino)propan-2-yl)oxy)-7-(3-hydroxynaphthalen-1-yl)-5,6,7,8-tetrahydropyrido[3,4-d]pyrimidin-4-yl)-3,8-diazabicyclo[3.2.1]octan-3-yl)prop-2-en-1-one]	–	A (“A”≤25% POC)	< 6.00
C=CC(=O)N1CCN(c2nc(OCCN(C)C)nc3c2CCN(c2cc(O)cc4ccccc24)C3C)CC1 (stereo not drawn) [Example 47, 1-(4-(2-(2-(dimethylamino)ethoxy)-7-(3-hydroxynaphthalen-1-yl)-8-methyl-5,6,7,8-tetrahydropyrido[3,4-d]pyrimidin-4-yl)piperazin-1-yl)prop-2-en-1-one]	–	C (“C”>50% POC)	< 6.00
